In PMC11882969 (Nature Communications, 2025):
Where “and” joins values, the source holds several entries; their conditions need not be identical. Equal entries are not always repeated. Where two headings read alike, the source gives them in different places.

Columns and labels:
hCB1 = hCB1 (Homo sapiens, UniProt P21554); test: bioSensAll ebBRET signaling profiling, hCB1; format: cell-based; design: host or cells: HEK293SL cells, transient PEI transfection; details: for Gi1 hCB1 response: Gi1 biosensor; for Gi1 hCB1 / GoB hCB1: single replicate values, FigS6a; for EC50: read-out: EC50 [95% CI]; for Emax: normalized to CP-55,940
CB1 (rCB1) = CB1 (rCB1) (Rattus norvegicus, UniProt P20272); test: Radioligand competition binding, [3H]-CP-55,940, rat brain membranes
Chain of CB1 (rCB1) (P20272 whole entry): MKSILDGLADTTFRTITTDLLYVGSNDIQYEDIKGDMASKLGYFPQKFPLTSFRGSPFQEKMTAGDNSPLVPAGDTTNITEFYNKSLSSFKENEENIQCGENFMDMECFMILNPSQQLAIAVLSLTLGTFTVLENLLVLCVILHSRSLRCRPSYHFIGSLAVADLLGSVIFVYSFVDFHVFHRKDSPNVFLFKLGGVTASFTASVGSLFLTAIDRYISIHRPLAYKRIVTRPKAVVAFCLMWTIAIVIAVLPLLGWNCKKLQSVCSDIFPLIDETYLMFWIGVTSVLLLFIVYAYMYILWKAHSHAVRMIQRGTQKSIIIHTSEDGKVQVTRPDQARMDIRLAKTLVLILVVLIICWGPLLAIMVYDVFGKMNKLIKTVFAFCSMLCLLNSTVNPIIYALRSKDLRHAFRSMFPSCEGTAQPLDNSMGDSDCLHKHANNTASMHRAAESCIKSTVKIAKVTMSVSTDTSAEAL

Chain of hCB1 (P21554 whole entry): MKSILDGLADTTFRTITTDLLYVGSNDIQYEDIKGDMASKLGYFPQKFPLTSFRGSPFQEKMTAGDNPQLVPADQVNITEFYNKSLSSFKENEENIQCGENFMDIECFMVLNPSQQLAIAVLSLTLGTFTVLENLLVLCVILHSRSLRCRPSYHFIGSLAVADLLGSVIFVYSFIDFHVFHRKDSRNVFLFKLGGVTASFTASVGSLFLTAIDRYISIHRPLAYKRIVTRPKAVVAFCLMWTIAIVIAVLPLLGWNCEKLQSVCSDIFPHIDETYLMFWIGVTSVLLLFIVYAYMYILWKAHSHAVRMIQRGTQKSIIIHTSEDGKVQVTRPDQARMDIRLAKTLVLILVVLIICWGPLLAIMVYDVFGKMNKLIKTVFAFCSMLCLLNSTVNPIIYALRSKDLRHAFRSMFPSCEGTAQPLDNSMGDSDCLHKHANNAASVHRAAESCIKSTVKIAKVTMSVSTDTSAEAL

In the case of `CC(=O)C(c1cccs1)N(C)C(=O)c1cc(C)n(-c2cccc(C(F)(F)F)c2)n1` (stereo not shown) [‘6829], the “Gi1 hCB1 response” value (hCB1; Log [Compound] (M) -4.22186) is reported as 50.5929, the “Gi1 hCB1 response” value (hCB1; Log [Compound] (M) -4.63927) is reported as 80.4274 and the “Gi1 hCB1 response” value (hCB1; Log [Compound] (M) -5.05788) is reported as 60.8884. For the same molecule, the “Gi1 hCB1 response” value (hCB1; Log [Compound] (M) -5.47381) was 50.1453, the “Gi1 hCB1 response” value (hCB1; Log [Compound] (M) -5.89285) was 25.0333 and the “Gi1 hCB1 response” value (hCB1; Log [Compound] (M) -6.31878) was 14.2679. For the same molecule, the “Gi1 hCB1 response” value (hCB1; Log [Compound] (M) -6.72585) was 9.501, the “Gi1 hCB1 response” value (hCB1; Log [Compound] (M) -7.14267) was -0.2577 and the “Gi1 hCB1 response” value (hCB1; Log [Compound] (M) -7.55284) was -0.3025. For the same molecule, the “Gi1 hCB1 response” value (hCB1; Log [Compound] (M) -8) was -3.011, the “Gi1 hCB1 response” value (hCB1; Log [Compound] (M) -8.22186) was 2.07 and the “Gi1 hCB1 response” value (hCB1; Log [Compound] (M) -8.39794) was -6.077. The “Gi1 hCB1 response” value (hCB1; Log [Compound] (M) -8.68787) was 2.45, the “Gi1 hCB1 response” value (hCB1; Log [Compound] (M) -9.15521) was 5.629 and the “Gi1 hCB1 response” value (hCB1; Log [Compound] (M) -9.61989) was -3.749. For the same molecule, the “Gi1 hCB1 response” value (hCB1; Log [Compound] (M) -10.0969) was -4.958, the “Gi1 hCB1 response” value (hCB1; Log [Compound] (M) -10.5529) was -8.091 and the “Gi1 hCB1 response” value (hCB1; Log [Compound] (M) -11.0177) was -9.456. The “Gi1 hCB1 response” value (hCB1; Log [Compound] (M) -11.4949) was -2.585, the “Gi1 hCB1 response” value (hCB1; Log [Compound] (M) -11.9208) was -4.1073 and the “Gi1 hCB1 response” value (hCB1; Log [Compound] (M) -12.3979) was -11.8513. For the same molecule, the “Gi1 hCB1 response” value (hCB1; Log [Compound] (M) -12.8861) was -4.7116, the “Gi1 hCB1 response” value (hCB1; Log [Compound] (M) -13, individual replicate values) was -0.3696 and -4.085 and the “Gi1 hCB1” value (hCB1; Log [Compound] (M) -4.22186) was 59.6278. For the same molecule, the “GoB hCB1” value (hCB1; Log [Compound] (M) -4.22186) was 46.0809, the “Gi1 hCB1” value (hCB1; Log [Compound] (M) -4.63927) was 49.4067 and the “GoB hCB1” value (hCB1; Log [Compound] (M) -4.63927) was 48.6345. For the same molecule, the “Gi1 hCB1” value (hCB1; Log [Compound] (M) -5.05788) was 40.28, the “GoB hCB1” value (hCB1; Log [Compound] (M) -5.05788) was 42.8439 and the “Gi1 hCB1” value (hCB1; Log [Compound] (M) -5.47381) was 35.5317. The “GoB hCB1” value (hCB1; Log [Compound] (M) -5.47381) was 37.2331, the “Gi1 hCB1” value (hCB1; Log [Compound] (M) -5.89285) was 23.7381 and the “GoB hCB1” value (hCB1; Log [Compound] (M) -5.89285) was 25.7777. The “Gi1 hCB1” value (hCB1; Log [Compound] (M) -6.31878) was 13.3781, the “GoB hCB1” value (hCB1; Log [Compound] (M) -6.31878) was 16.7141 and the “Gi1 hCB1” value (hCB1; Log [Compound] (M) -6.72585) was 9.694. For the same molecule, the “GoB hCB1” value (hCB1; Log [Compound] (M) -6.72585) was 6.7333, the “Gi1 hCB1” value (hCB1; Log [Compound] (M) -7.14267) was 3.188 and the “GoB hCB1” value (hCB1; Log [Compound] (M) -7.14267) was 2.399. The “Gi1 hCB1” value (hCB1; Log [Compound] (M) -7.55284) was 5.377, the “GoB hCB1” value (hCB1; Log [Compound] (M) -7.55284) was 1.374 and the “Gi1 hCB1” value (hCB1; Log [Compound] (M) -8) was 4.359. For the same molecule, the “GoB hCB1” value (hCB1; Log [Compound] (M) -8) was 2.831, the “Gi1 hCB1” value (hCB1; Log [Compound] (M) -8.22186) was 1.1836 and the “GoB hCB1” value (hCB1; Log [Compound] (M) -8.22186) was -4.488. For the same molecule, the “Gi1 hCB1” value (hCB1; Log [Compound] (M) -8.39794) was 5.593, the “GoB hCB1” value (hCB1; Log [Compound] (M) -8.39794) was 1.554 and the “Gi1 hCB1” value (hCB1; Log [Compound] (M) -8.68787) was 1.615. The “GoB hCB1” value (hCB1; Log [Compound] (M) -8.68787) was -3.931, the “Gi1 hCB1” value (hCB1; Log [Compound] (M) -9.15521) was 2.463 and the “GoB hCB1” value (hCB1; Log [Compound] (M) -9.15521) was -1.036. For the same molecule, the “Gi1 hCB1” value (hCB1; Log [Compound] (M) -9.61989) was 0.7057, the “GoB hCB1” value (hCB1; Log [Compound] (M) -9.61989) was -1.161 and the “Gi1 hCB1” value (hCB1; Log [Compound] (M) -10.0969) was 1.353. For the same molecule, the “GoB hCB1” value (hCB1; Log [Compound] (M) -10.0969) was -3.463, the “Gi1 hCB1” value (hCB1; Log [Compound] (M) -10.5529) was 1.137 and the “GoB hCB1” value (hCB1; Log [Compound] (M) -10.5529) was 1.105. The “Gi1 hCB1” value (hCB1; Log [Compound] (M) -11.0177) was 3.142, the “GoB hCB1” value (hCB1; Log [Compound] (M) -11.0177) was -0.532 and the “Gi1 hCB1” value (hCB1; Log [Compound] (M) -11.4949) was 2.879. The “GoB hCB1” value (hCB1; Log [Compound] (M) -11.4949) was 1.392, the “Gi1 hCB1” value (hCB1; Log [Compound] (M) -11.9208) was 3.126 and the “GoB hCB1” value (hCB1; Log [Compound] (M) -11.9208) was 1.392. For the same molecule, the “Gi1 hCB1” value (hCB1; Log [Compound] (M) -12.3979) was 4.159, the “GoB hCB1” value (hCB1; Log [Compound] (M) -12.3979) was 2.561 and the “Gi1 hCB1” value (hCB1; Log [Compound] (M) -12.8861) was 3.496. For the same molecule, the “GoB hCB1” value (hCB1; Log [Compound] (M) -12.8861) was 2.705, the “Gi1 hCB1” value (hCB1; Log [Compound] (M) -13) was 3.327 and 1.677 and the “GoB hCB1” value (hCB1; Log [Compound] (M) -13) was -2.744 and -3.607. The “pEC50 [95% CI]” value (hCB1; hCB1 Gi1) was 5.4 [5.0 – 5.6], the “pEC50 [95% CI]” value (hCB1; hCB1 GoB) was 6.0 [5.8 – 6.2] and the “pEC50 [95% CI]” value (hCB1; hCB1 Gz) was 5.9 [6.0 – 6.2]. It also gave an EC50 (hCB1; hCB1 Gi1) of 4.06 µM, an EC50 (hCB1; hCB1 Gz) of 1.35 µM and an Emax (hCB1; read-out: Emax [95% CI], hCB1 Gi1) of 68%. For the same molecule, the Emax (hCB1; read-out: Emax [95% CI], hCB1 GoB) was 49%, the Emax (hCB1; read-out: Emax [95% CI], hCB1 Gz) was 70% and the “pKi [95% CI]” value (CB1 (rCB1); rCB1) was 6.0 [5.8 – 6.2]. For the same molecule, the Ki (CB1 (rCB1); read-out: Ki [95% CI], rCB1, [3H]-CP-55,940) was 1.05 µM.
